Consider 4 compounds from US6399542B1, “Alkoxyimino-substituted bicyclic compounds compositions containing the same and method of making such compounds” (Agro-Kanesho Co., Ltd., priority 1997, dated 2002).

One data set concerns Erysiphe graminis. As to the kind of experiment: Effects on Barley powdery mildew (preventive spray test). The class given is in vivo. Particulars: lesions counted seven days after inoculation.
Another data set deals with Puccinia recondita. As to the kind of experiment: Effect on Wheat brown rust (preventive spray test). It is filed as in vivo. Particulars: 7 days after inoculation.
The subject of data set [1] is Psecidoperonospora cubensis. As to the kind of experiment: Effect on Cucumber downy mildew (preventive spray test). Particulars: 7 days after inoculation. It is filed as in vivo.
The next data set deals with Pyricularia oryzae. The class given is in vivo. Particulars: Rice blast, 7 days after inoculation.
The test system of the next data set is Chochliobolus miyabeanus. Put plainly: Effect on Rice brown spot (preventive spray test). It is filed as in vivo. Particulars: 7 days after inoculation.
The next data set relates to Rhizoctonia solani. As to the kind of experiment: Effect on Rice sheath blight (preventive spray test). Particulars: 10 days after inoculation.
A further data set deals with Botrytis cinerea. Put plainly: Effect on Cucumber gray mold (cotyledon paper disc test). The class given is in vivo. Particulars: 3 days after inoculation.
Where [2] appears, read: conc. of active ingredient 20 ppm.
Where [3] appears, read: conc. of active ingredient 100 ppm.

Where two headings read alike, the source gives them in different places.

Method for Rhizoctonia solani: An emulsion of a compound of the present invention prepared in Preparation Example 2 was diluted with water and uniformly sprayed on 5 rice plant seedlings (variety: Koshihikari) in 4.5-leaf stage in each plastic pot having a diameter of 6 cm, with a spray gun. One day after the spraying, the seedlings were bundled at the second sheath with a string. Colonies of Rhizoctonia solani previously cultured in PSA culture medium were bored with a cork borer to obtain pieces having a diameter of 4 mm. The piece was put in the bundle, and kept in a high-humidity room at 25° C. until the examination. Ten days after the inoculation, the degree of the disease was examined, and the preventive rate (effect of inhibiting the disease) was calculated on the basis of the following standard:
Preventive rate=[1-D′/C′]×100
C′: Severity in untreated section
D′: Severity in treated section.

Take `CON=C1COc2cc(OCc3ccccc3/C(=N\OC)C(=O)OC)ccc21` [a-4, (E) methyl methoxyimino-[2-(3-methoxyimino-2,3-dihydrobenzofuran-6-yloxymethyl)-phenyl]acetate]: the melting point – broadly, the temperature, or range, at which the solid turns liquid – is 108 to 110 °C. Further, in the data set on Erysiphe graminis (setting [2]), the “Preventive rate (%)” value stood at 93%. Besides, the “Preventive rate (%)” value in the data set on Erysiphe graminis (setting [3]) was 100%. The “Preventive rate (%)” value with Puccinia recondita (setting [2]) is listed as 94%. Moreover, in the data set on Puccinia recondita (setting [3]), the “Preventive rate (%)” value was determined as 98%. The “Preventive rate (%)” value in data set [1] (setting [2]) came to 94%. For the same compound, the “Preventive rate (%)” value in data set [1] (setting [3]) stood at 94%. In addition, the “Preventive rate (%)” value in the data set on Pyricularia oryzae (setting [2]) worked out at 86%. Also, the “Preventive rate (%)” value in the data set with Pyricularia oryzae (setting [3]) was 90%. For the same compound, the “Preventive rate (%)” value in the data set on Chochliobolus miyabeanus (setting [2]) is recorded as 75%. The “Preventive rate (%)” value with Chochliobolus miyabeanus (setting [3]) was 80%. For the same compound, the “Preventive rate (%)” value in the data set with Rhizoctonia solani (setting [2]) is given as 93%. For the same compound, the “Preventive rate (%)” value in the data set with Rhizoctonia solani (setting [3]) was 92%.

Consider `CNC(=O)N(OC)c1ccccc1COc1ccc2c(c1)OCC2=NOC` [a-8, N-[2-(3-methoxyimino-2,3-dihydrobenzofuran-6-yloxymethyl)phenyl]-N-methoxy-N′-methylurea], for which the melting point lay within 109 to 112 °C. The “Preventive rate (%)” value in the data set on Puccinia recondita (setting [2]) is 99%. In addition, in the data set on Puccinia recondita (setting [3]), the “Preventive rate (%)” value is 100%. In addition, the “Preventive rate (%)” value in data set [1] (conc. of active ingredient 4 ppm) worked out at 75%. Besides, the “Preventive rate (%)” value in data set [1] (setting [2]) worked out at 88%. Besides, the “Preventive rate (%)” value in data set [1] (setting [3]) is 94%.

`CCON=C1COc2cc(OCc3ccccc3/C(=N\OC)C(=O)NC)ccc21` [a-37, (E) methoxyimino-[2-(3-ethoxyimino-2,3-dihydrobenzofuran-6-yloxymethyl)-phenyl]-N-methyl-acetamide] showed a melting point of 110 to 113 °C. In the data set on Puccinia recondita (setting [2]), the “Preventive rate (%)” value is 99%. Further, the “Preventive rate (%)” value in the data set on Puccinia recondita (setting [3]) was determined as 100%. Moreover, the “Preventive rate (%)” value in data set [1] (setting [2]) was found to be 100%. Also, in data set [1] (setting [3]), the “Preventive rate (%)” value was found to be 100%. In addition, the “Preventive rate (%)” value with Botrytis cinerea (setting [2]) was 100%. The “Preventive rate (%)” value with Botrytis cinerea (setting [3]) came out at 100%.

Turning to `CON=C1COc2cc(OCc3ccccc3N(OC)C(=O)OC)ccc21` [a-7, methyl N-[2-(3-methoxyimino-2,3-dihydro-benzofuran-6-yloxymethyl)-phenyl]-N-methoxycarbamate], the melting point was in the range of 102 to 103 °C. Besides, in the data set on Puccinia recondita (setting [2]), the “Preventive rate (%)” value was determined as 99%. Besides, the “Preventive rate (%)” value in the data set with Puccinia recondita (setting [3]) was found to be 100%. Also, the “Preventive rate (%)” value in data set [1] (setting [2]) came out at 94%. The “Preventive rate (%)” value in data set [1] (setting [3]) was determined as 97%. Also, the “Preventive rate (%)” value in the data set with Botrytis cinerea (setting [2]) worked out at 56%. For the same compound, the “Preventive rate (%)” value in the data set on Botrytis cinerea (setting [3]) was determined as 97%.
